The results in this text go back to ChEMBL document CHEMBL1667844, “Synthesis, structure-activity relationships and preliminary antitumor evaluation of benzothiazole-2-thiol derivatives as novel apoptosis inducers” (Bioorg Med Chem Lett, 2011).

The structures appear in SMILES notation. Some results are limits rather than exact numbers.

Assay [1] has as its system HepG2. As to the kind of experiment: Cytotoxicity against human HepG2 cells after 48 hrs by MTT assay. In kind it is functional, cell-based. The conditions noted are these: HepG2, 48 h.
The subject of a further assay is MCF7. Nature of the assay: Cytotoxicity against human MCF7 cells after 48 hrs by MTT assay. It is filed as functional, cell-based. The settings on record: MCF7, 48 h. In general terms: Formazan colour is commonly taken as a measure of viable cells.
The next assay deals with PC-3. Nature of the assay: Cytotoxicity against human PC3 cells after 48 hrs by MTT assay. It is filed as functional, cell-based. The conditions noted are these: PC-3, 48 h.
The subject of the next assay is A-431. Nature of the assay: Cytotoxicity against human A431 cells after 48 hrs by MTT assay. It is filed as functional, cell-based. The settings on record: A-431, 48 h.
In a further assay the test system is HCT-116. Nature of the assay: Cytotoxicity against human HCT116 cells after 48 hrs by MTT assay. It is filed as functional, cell-based. The settings on record: HCT-116, 48 h.
The next assay deals with SK-BR-3. Nature of the assay: Cytotoxicity against human SK-BR-3 cells after 48 hrs by MTT assay. In kind it is functional, cell-based. The settings on record: SK-BR-3, 48 h.
The next assay relates to HeLa. Nature of the assay: Cytotoxicity against human HeLa cells after 48 hrs by MTT assay. In kind it is functional, cell-based.
In another assay the test system is SK-OV-3. Nature of the assay: Cytotoxicity against human SKOV3 cells after 48 hrs by MTT assay. The conditions noted are these: SK-OV-3, 48 h. In kind it is functional, cell-based.
In another assay the test system is A-375. Nature of the assay: Cytotoxicity against human A375 cells after 48 hrs by MTT assay. The conditions noted are these: A-375, 48 h. It is filed as functional, cell-based.
A further assay has as its system SW-620. As to the kind of experiment: Cytotoxicity against human SW620 cells after 48 hrs by MTT assay. In kind it is functional, cell-based. The conditions noted are these: SW-620, 48 h.
The test system of another assay is A549. As to the kind of experiment: Cytotoxicity against human A549 cells after 48 hrs by MTT assay. In kind it is functional, cell-based. The conditions noted are these: A549, 48 h.
For another assay, the system named is SW480. Nature of the assay: Cytotoxicity against human SW480 cells after 48 hrs by MTT assay. In kind it is functional, cell-based. The settings on record: SW480, 48 h.
A further assay relates to BXPC-3. Nature of the assay: Cytotoxicity against human BxPC3 cells after 48 hrs by MTT assay. In kind it is functional, cell-based. The conditions noted are these: BXPC-3, 48 h.
A further assay concerns MDA-MB-468. As to the kind of experiment: Cytotoxicity against human MDA-MB-468 cells after 48 hrs by MTT assay. In kind it is functional, cell-based. The settings on record: MDA-MB-468, 48 h.
Assay [2] deals with HepG2. As to the kind of experiment: Induction of apoptosis in human HepG2 cells assessed as DNA content at sub-G1 phase at 0.6 uM after 24 hrs using propidium iodide staining by flow cytometry (reference value: 4.3 %). In kind it is functional. In general terms: A flow cytometer gives signals particle by particle.
The subject of assay [3] is HepG2. Nature of the assay: Induction of apoptosis in human HepG2 cells assessed as DNA content at sub-G1 phase at 0.3 uM after 24 hrs using propidium iodide staining by flow cytometry (reference value: 4.3 %). In kind it is functional.
Assay [4] deals with HepG2. As to the kind of experiment: Induction of apoptosis in human HepG2 cells assessed as morphological changes after 24 hrs using propidium iodide staining by fluorescence microscopic analysis. It is filed as functional, cell-based.
Assay [5] has as its system HepG2. As to the kind of experiment: Induction of apoptosis in human HepG2 cells assessed as DNA content at sub-G1 phase at 1.2 uM after 24 hrs using propidium iodide staining by flow cytometry (reference value: 4.3 %). It is filed as functional.
Assay [6] deals with HepG2. As to the kind of experiment: Induction of apoptosis in human HepG2 cells assessed as DNA content at sub-G1 phase after 24 hrs using propidium iodide staining by flow cytometry. It is filed as functional, cell-based.

For `CNC(=O)CSc1nc2ccc(NC(C)=O)cc2s1`, the IC50 in the assay on HepG2 [1] and with MCF7 was greater than 100 µM throughout.

`O=C(CSc1nc2ccc(NC(=O)c3ccc(Cl)cc3)cc2s1)NCc1ccccc1`: the 50% inhibitory concentration (IC50) (as a rule, the midpoint of a concentration-inhibition curve) in the assay on HepG2 [1] was determined as 25.4 µM; with MCF7 it was 25.9 µM.

On to `O=C(CSc1nc2ccc(NC(=O)c3ccc([N+](=O)[O-])cc3)cc2s1)NCc1ccccc1`, for which the IC50 with HepG2 [1] and with MCF7 was greater than 100 µM throughout.

`CNC(=O)CSc1nc2ccc(NC(=O)c3ccc(Cl)cc3)cc2s1`: the IC50 in the assay on HepG2 [1] amounted to 15.3 µM; in the assay on MCF7, 29.4 µM.

`O=C(CSc1nc2ccc(NC(=O)CCl)cc2s1)NCc1ccc(Cl)cc1`: the IC50 came out at 1.8 µM with HepG2 [1] and 4.9 µM in the assay on MCF7.

Turning to `O=C(CSc1nc2ccc(NC(=O)c3ccccc3)cc2s1)NCc1ccccc1`, the IC50 amounted to 34.2 µM with HepG2 [1] and 35.6 µM in the assay on MCF7.

For the compound `CNC(=O)CSc1nc2ccc(NC(=O)c3ccccc3OC)cc2s1`, the concentration for half-maximal inhibition (IC50) came out at 18.5 µM in the assay with HepG2 [1] and 23.4 µM in the assay with MCF7.

On to `O=C(CSc1nc2ccc(NC(=O)c3ccc(Cl)cc3)cc2s1)NCc1ccc(Cl)cc1`, for which the IC50 stood at 17.8 µM in the assay with HepG2 [1] and 29.3 µM in the assay with MCF7.

Regarding `COc1ccc(CNC(=O)CSc2nc3ccc(NC(=O)c4ccc(Cl)cc4)cc3s2)cc1`, the values for the IC50 in the assay on HepG2 [1] and in the assay on MCF7 were 7.4 µM and 19.2 µM, respectively.

For `COc1ccccc1C(=O)Nc1ccc2nc(SCC(=O)NCc3ccccc3)sc2c1`, the IC50 in the assay on HepG2 [1] is 8 µM; in the assay with MCF7 it was 17.2 µM.

`COc1ccc(CNC(=O)CSc2nc3ccc(NC(C)=O)cc3s2)cc1`: the IC50 in the assay on HepG2 [1] worked out at 11.2 µM; with MCF7 it was 20.5 µM.

As to `COc1ccc(CNC(=O)CSc2nc3ccc(NC(=O)c4ccc([N+](=O)[O-])cc4)cc3s2)cc1`, the IC50 with HepG2 [1] and in the assay on MCF7 was greater than 100 µM throughout.

For the compound `COc1ccc(CNC(=O)CSc2nc3ccc(NC(=O)c4ccccc4)cc3s2)cc1`, the figures for the IC50 in the assay on HepG2 [1] and with MCF7 were 12.7 µM and 21.2 µM, respectively.

Consider `COc1ccc(CNC(=O)CSc2nc3ccc(NC(=O)CCl)cc3s2)cc1`, for which the IC50 is 2 µM with HepG2 [1] and 5.1 µM in the assay on MCF7.

Consider `CC(=O)Nc1ccc2nc(SCC(=O)NCc3ccc(Cl)cc3)sc2c1`, for which the IC50 turned out to be 6.7 µM with HepG2 [1] and 10.2 µM in the assay on MCF7.

In the case of `O=C(CSc1nc2ccc(NC(=O)CCl)cc2s1)NCc1ccccc1`, the IC50 in the assay with PC-3 was 6.1 µM; in the assay with HepG2 [1], 1.1 µM; with A-431, 4400 nM; in the assay with HCT-116 it was 1300 nM; with SK-BR-3, 8.8 µM; with HeLa it was 4.9 µM. Also, the concentration for half-maximal inhibition (IC50) in the assay on SK-OV-3 worked out at 4.8 µM; in the assay with A-375 it was 1800 nM; in the assay with SW-620, 1200 nM; in the assay on A549, 4 µM; in the assay on SW480, 5.2 µM; in the assay with MCF7, 4.2 µM. The figures for the IC50 in the assay with BXPC-3 and in the assay on MDA-MB-468 were 6.6 µM and 4.1 µM, respectively.

Consider `CNC(=O)CSc1nc2ccc(NC(=O)CCl)cc2s1`, for which the IC50 turned out to be 1.9 µM with HepG2 [1] and 5 µM in the assay on MCF7.

With `O=C(CSc1nc2ccc(NC(=O)c3ccccc3)cc2s1)NCc1ccc(Cl)cc1`, the figures for the IC50 with HepG2 [1] and with MCF7 were 30.1 µM and 33.7 µM, respectively.

As for `CNC(=O)CSc1nc2ccc(NC(=O)c3ccc([N+](=O)[O-])cc3)cc2s1`, the half-inhibitory concentration (IC50) with HepG2 [1] and in the assay on MCF7 was greater than 100 µM throughout.

As for `COc1ccccc1C(=O)Nc1ccc2nc(SCC(=O)NCc3ccc(Cl)cc3)sc2c1`, the 50% inhibitory concentration (IC50) was 4.6 µM with PC-3; 0.6 µM with HepG2 [1]; 1100 nM with A-431; 1500 nM in the assay on HCT-116; 1.2 µM in the assay with SK-BR-3; 4.2 µM in the assay with HeLa. The IC50 with SK-OV-3 was 6 µM; in the assay on A-375 it was 2200 nM; in the assay with SW-620, 4200 nM; in the assay with A549 it was 2 µM; in the assay on SW480, 5.4 µM; with MCF7, 1.1 µM. Further, the IC50 worked out at 4.4 µM in the assay on BXPC-3 and 2.3 µM with MDA-MB-468. Besides, the Activity in the assay on HepG2 [2] was 35.9%; with HepG2 [3] it was 19.2%; in the assay with HepG2 [4] it was “Dose-dependent effect”; in the assay with HepG2 [5], 55.4%; with HepG2 [6] it was “Dose-dependent effect”.

`COc1ccc(CNC(=O)CSc2nc3ccc(NC(=O)c4ccccc4OC)cc3s2)cc1`: the IC50 with HepG2 [1] is 2.1 µM; in the assay on MCF7 it was 9.3 µM.

Turning to `CNC(=O)CSc1nc2ccc(NC(=O)c3ccccc3)cc2s1`, the IC50 in the assay on HepG2 [1] is 26.5 µM; in the assay on MCF7 it was 34.4 µM.

On to `O=C(CSc1nc2ccc(NC(=O)c3ccc([N+](=O)[O-])cc3)cc2s1)NCc1ccc(Cl)cc1`, for which the IC50 in the assay on HepG2 [1] and in the assay with MCF7 was greater than 100 µM in each case.

Take `CC(=O)Nc1ccc2nc(SCC(=O)NCc3ccccc3)sc2c1`: the figures for the IC50 in the assay with HepG2 [1] and in the assay on MCF7 were 9.2 µM and 17.6 µM, respectively.
